Assay results taken from PubChem BioAssay (NCI).
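Cultured in 96-well plates, cells were exposed to test compound for 48 hours across five concentrations. GI50: concentration for 50% inhibition of growth. TGI: total growth inhibition.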

How the values were obtained:
Assay in all cases: DTP human tumour cell line panel, 48 h
SF-539 CNS = tested on: SF-539 CNS
KM20L2 colon = tested on: KM20L2 colon
DMS 273 small cell lung = tested on: DMS 273 small cell lung
SW-620 colon = tested on: SW-620 colon
SK-OV-3 ovarian = tested on: SK-OV-3 ovarian
HOP-62 NSCLC = tested on: HOP-62 NSCLC
RPMI-8226 leukemia = tested on: RPMI-8226 leukemia
A549 NSCLC = tested on: A549 NSCLC
M14 melanoma = tested on: M14 melanoma
NCI-H460 lung = tested on: NCI-H460 lung
HL-60(TB) leukemia = tested on: HL-60(TB) leukemia
HT29 colon = tested on: HT29 colon
NCI-H23 lung = tested on: NCI-H23 lung
NCI-H226 lung = tested on: NCI-H226 lung
SN12C renal = tested on: SN12C renal
DMS 114 small cell lung = tested on: DMS 114 small cell lung
XF 498 CNS = tested on: XF 498 CNS
786-0 renal = tested on: 786-0 renal
ACHN renal = tested on: ACHN renal
UACC-62 melanoma = tested on: UACC-62 melanoma
U251 CNS = tested on: U251 CNS
DLD-1 colon = tested on: DLD-1 colon
IGROV1 ovarian = tested on: IGROV1 ovarian
OVCAR-8 ovarian = tested on: OVCAR-8 ovarian
MOLT-4 leukemia = tested on: MOLT-4 leukemia
LOX IMVI melanoma = tested on: LOX IMVI melanoma
MALME-3M melanoma = tested on: MALME-3M melanoma
UACC-257 melanoma = tested on: UACC-257 melanoma
UO-31 renal = tested on: UO-31 renal
HCT-116 colon = tested on: HCT-116 colon
K-562 leukemia = tested on: K-562 leukemia
CCRF-CEM leukemia = tested on: CCRF-CEM leukemia
COLO 205 colon = tested on: COLO 205 colon
RXF 393 renal = tested on: RXF 393 renal
KM12 colon = tested on: KM12 colon
SK-MEL-28 melanoma = tested on: SK-MEL-28 melanoma
SNB-75 CNS = tested on: SNB-75 CNS
SNB-19 CNS = tested on: SNB-19 CNS
HCT-15 colon = tested on: HCT-15 colon
EKVX NSCLC = tested on: EKVX NSCLC
SF-295 CNS = tested on: SF-295 CNS
NCI-H522 lung = tested on: NCI-H522 lung
HOP-18 NSCLC = tested on: HOP-18 NSCLC
OVCAR-3 ovarian = tested on: OVCAR-3 ovarian
TK-10 renal = tested on: TK-10 renal
SK-MEL-5 melanoma = tested on: SK-MEL-5 melanoma
SR leukemia = tested on: SR leukemia
LXFL 529 NSCLC = tested on: LXFL 529 NSCLC
A498 renal = tested on: A498 renal
HCC-2998 colon = tested on: HCC-2998 colon
CAKI-1 renal = tested on: CAKI-1 renal
M19-MEL melanoma = tested on: M19-MEL melanoma
SF-268 CNS = tested on: SF-268 CNS
SNB-78 CNS = tested on: SNB-78 CNS
SK-MEL-2 melanoma = tested on: SK-MEL-2 melanoma

Compound: Cc1ccc(NC(=O)c2cc3cc(N=Nc4ccccc4C(=O)O)ccc3oc2=O)cc1
- TGI (SF-539 CNS): 98.5 µM
- TGI (KM20L2 colon): > 100 µM
- TGI (DMS 273 small cell lung): > 100 µM
- TGI (SW-620 colon): > 100 µM
- TGI (SK-OV-3 ovarian): > 100 µM
- TGI (HOP-62 NSCLC): > 100 µM
- TGI (RPMI-8226 leukemia): > 100 µM
- TGI (A549 NSCLC): > 100 µM
- TGI (M14 melanoma): > 100 µM
- TGI (NCI-H460 lung): > 100 µM
- TGI (HL-60(TB) leukemia): 69.4 µM
- TGI (HT29 colon): > 100 µM
- TGI (NCI-H23 lung): > 100 µM
- TGI (NCI-H226 lung): > 100 µM
- TGI (SN12C renal): > 100 µM
- TGI (DMS 114 small cell lung): 94.3 µM
- TGI (XF 498 CNS): 85.8 µM
- TGI (786-0 renal): > 100 µM
- TGI (ACHN renal): > 100 µM
- TGI (UACC-62 melanoma): 85 µM
- TGI (U251 CNS): > 100 µM
- TGI (DLD-1 colon): > 100 µM
- TGI (IGROV1 ovarian): > 100 µM
- TGI (OVCAR-8 ovarian): > 100 µM
- TGI (MOLT-4 leukemia): > 100 µM
- TGI (LOX IMVI melanoma): > 100 µM
- TGI (MALME-3M melanoma): > 100 µM
- TGI (UACC-257 melanoma): 59.4 µM
- TGI (UO-31 renal): > 100 µM
- TGI (HCT-116 colon): > 100 µM
- TGI (K-562 leukemia): > 100 µM
- TGI (CCRF-CEM leukemia): > 100 µM
- TGI (COLO 205 colon): > 100 µM
- TGI (RXF 393 renal): > 100 µM
- TGI (KM12 colon): > 100 µM
- TGI (SK-MEL-28 melanoma): > 100 µM
- TGI (SNB-75 CNS): > 100 µM
- TGI (SNB-19 CNS): > 100 µM
- TGI (HCT-15 colon): > 100 µM
- TGI (EKVX NSCLC): > 100 µM
- TGI (SF-295 CNS): > 100 µM
- TGI (NCI-H522 lung): > 100 µM
- TGI (HOP-18 NSCLC): > 100 µM
- TGI (OVCAR-3 ovarian): 74.2 µM
- TGI (TK-10 renal): > 100 µM
- TGI (SK-MEL-5 melanoma): > 100 µM

Compound: [Cl-].[La+3].[O-]/N=C(\c1ccccc1)c1ccccn1.[O-]/N=C(\c1ccccc1)c1ccccn1.[O-]/N=C(\c1ccccc1)c1ccccn1
- GI50 (SF-539 CNS): 29.7 µM
- TGI (SF-539 CNS): > 85.7 µM
- GI50 (KM20L2 colon): 46.2 µM
- TGI (KM20L2 colon): > 100 µM
- GI50 (DMS 273 small cell lung): 31.3 µM
- TGI (DMS 273 small cell lung): > 100 µM
- GI50 (SW-620 colon): 53.9 µM
- TGI (SW-620 colon): > 100 µM
- GI50 (SK-OV-3 ovarian): 50.8 µM
- TGI (SK-OV-3 ovarian): > 100 µM
- GI50 (HOP-62 NSCLC): 28.4 µM
- TGI (HOP-62 NSCLC): > 93.9 µM
- GI50 (RPMI-8226 leukemia): 62.1 µM
- TGI (RPMI-8226 leukemia): > 100 µM
- GI50 (A549 NSCLC): 41.8 µM
- TGI (A549 NSCLC): > 100 µM
- GI50 (M14 melanoma): 20.2 µM
- TGI (M14 melanoma): 41.4 µM
- GI50 (NCI-H460 lung): 15 µM
- TGI (NCI-H460 lung): > 69.2 µM
- GI50 (HL-60(TB) leukemia): 33.5 µM
- TGI (HL-60(TB) leukemia): > 100 µM
- GI50 (SR leukemia): 36.5 µM
- TGI (SR leukemia): > 100 µM
- GI50 (HT29 colon): 50.4 µM
- TGI (HT29 colon): > 100 µM
- GI50 (NCI-H23 lung): 57.1 µM
- TGI (NCI-H23 lung): > 100 µM
- GI50 (NCI-H226 lung): 21.6 µM
- TGI (NCI-H226 lung): 51.2 µM
- GI50 (LXFL 529 NSCLC): 60.3 µM
- TGI (LXFL 529 NSCLC): > 100 µM
- GI50 (SN12C renal): 23.5 µM
- TGI (SN12C renal): > 100 µM
- GI50 (DMS 114 small cell lung): 30.8 µM
- TGI (DMS 114 small cell lung): > 100 µM
- GI50 (A498 renal): 77.6 µM
- TGI (A498 renal): > 100 µM
- GI50 (HCC-2998 colon): > 100 µM
- TGI (HCC-2998 colon): > 100 µM
- GI50 (786-0 renal): 36 µM
- TGI (786-0 renal): > 100 µM
- GI50 (UACC-62 melanoma): 33.3 µM
- TGI (UACC-62 melanoma): > 100 µM
- GI50 (U251 CNS): 32 µM
- TGI (U251 CNS): > 100 µM
- GI50 (DLD-1 colon): 43.5 µM
- TGI (DLD-1 colon): > 100 µM
- GI50 (IGROV1 ovarian): 51.5 µM
- TGI (IGROV1 ovarian): > 100 µM
- GI50 (OVCAR-8 ovarian): 46 µM
- TGI (OVCAR-8 ovarian): > 100 µM
- GI50 (MOLT-4 leukemia): 37.6 µM
- TGI (MOLT-4 leukemia): > 100 µM
- GI50 (LOX IMVI melanoma): 22.9 µM
- TGI (LOX IMVI melanoma): > 100 µM
- GI50 (MALME-3M melanoma): 45.8 µM
- TGI (MALME-3M melanoma): > 100 µM
- GI50 (UACC-257 melanoma): 41.1 µM
- TGI (UACC-257 melanoma): > 100 µM
- GI50 (UO-31 renal): 30.2 µM
- TGI (UO-31 renal): > 80.8 µM
- GI50 (HCT-116 colon): 44 µM
- TGI (HCT-116 colon): > 100 µM
- GI50 (K-562 leukemia): 84.2 µM
- TGI (K-562 leukemia): > 100 µM
- GI50 (CCRF-CEM leukemia): 25.7 µM
- TGI (CCRF-CEM leukemia): > 100 µM
- GI50 (COLO 205 colon): 46.8 µM
- TGI (COLO 205 colon): > 100 µM
- GI50 (CAKI-1 renal): 48.4 µM
- TGI (CAKI-1 renal): > 91.2 µM
- GI50 (M19-MEL melanoma): 22 µM
- TGI (M19-MEL melanoma): 50 µM
- GI50 (RXF 393 renal): 29.8 µM
- TGI (RXF 393 renal): > 90.4 µM
- GI50 (KM12 colon): 82 µM
- TGI (KM12 colon): > 100 µM
- GI50 (SF-268 CNS): 46 µM
- TGI (SF-268 CNS): > 100 µM
- GI50 (SK-MEL-28 melanoma): 38.5 µM
- TGI (SK-MEL-28 melanoma): > 100 µM
- GI50 (SNB-75 CNS): 27.8 µM
- TGI (SNB-75 CNS): 82 µM
- GI50 (SNB-19 CNS): 50.5 µM
- TGI (SNB-19 CNS): > 100 µM
- GI50 (SNB-78 CNS): > 90.8 µM
- TGI (SNB-78 CNS): > 100 µM
- GI50 (HCT-15 colon): 30.8 µM
- TGI (HCT-15 colon): > 100 µM
- GI50 (EKVX NSCLC): 40.6 µM
- TGI (EKVX NSCLC): > 89.5 µM
- GI50 (SF-295 CNS): 27.7 µM
- TGI (SF-295 CNS): > 100 µM
- GI50 (NCI-H522 lung): 44.5 µM
- TGI (NCI-H522 lung): > 100 µM
- GI50 (HOP-18 NSCLC): 31.3 µM
- TGI (HOP-18 NSCLC): > 100 µM
- GI50 (SK-MEL-2 melanoma): 37.1 µM
- TGI (SK-MEL-2 melanoma): > 100 µM
- GI50 (OVCAR-3 ovarian): 39.2 µM
- TGI (OVCAR-3 ovarian): > 100 µM
- GI50 (TK-10 renal): > 74.4 µM
- TGI (TK-10 renal): > 100 µM
- GI50 (SK-MEL-5 melanoma): 28.6 µM
- TGI (SK-MEL-5 melanoma): > 76.4 µM
